Results as given in ChEMBL document CHEMBL5143703, “Discovery of novel chloropyramine-cinnamic acid hybrids as potential FAK inhibitors for intervention of metastatic triple-negative breast cancer” (Bioorg Med Chem, 2022).
Active and inactive are the calls of the source. The calls are words filed in the database; no cut-off is given here.

What was measured:
[1] = Cytotoxicity against human MCF-10A cells assessed as inhibition of cell proliferation incubated for 72 hrs by MTT assay; type: toxicity, cell-based
[2] = test system: MDA-MB-231; assay: Antiproliferative activity against human MDA-MB-231 cells assessed as inhibition of cell proliferation at 10 uM incubated for 72 hrs by MTT assay relative to control; type: functional
[3] = test system: MDA-MB-157; assay: Antiproliferative activity against human MDA-MB-157 cells assessed as inhibition of cell proliferation incubated for 72 hrs by MTT assay; type: functional, cell-based; settings: MDA-MB-157, 72 h
[4] = test system: MDA-MB-453; assay: Antiproliferative activity against human MDA-MB-453 cells assessed as inhibition of cell proliferation incubated for 72 hrs by MTT assay; type: functional, cell-based; settings: MDA-MB-453, 72 h
[5] = test system: MDA-MB-231; assay: Antiproliferative activity against human MDA-MB-231 cells assessed as inhibition of cell proliferation incubated for 72 hrs by MTT assay; type: functional, cell-based; settings: MDA-MB-231, 72 h
[6] = test system: MDA-MB-231; assay: Induction of apoptosis in human MDA-MB-231 cells assessed as viable cells at 20 uM incubated for 72 hrs by Annexin V-FITC and PI staining based flow cytometry analysis (reference value: 92.16 %); type: functional; settings: read-out: Activity
[7] = test system: MDA-MB-231; assay: Induction of apoptosis in human MDA-MB-231 cells assessed as early apoptotic cells at 20 uM incubated for 72 hrs by Annexin V-FITC and PI staining based flow cytometry analysis (reference value: 1.70 %); type: functional
[8] = test system: MDA-MB-231; assay: Induction of apoptosis in human MDA-MB-231 cells assessed as viable cells at 5 uM incubated for 72 hrs by Annexin V-FITC and PI staining based flow cytometry analysis (reference value: 92.16 %); type: functional; settings: read-out: Activity
[9] = test system: MDA-MB-231; assay: Induction of apoptosis in human MDA-MB-231 cells assessed as late apoptotic cells at 10 uM incubated for 72 hrs by Annexin V-FITC and PI staining based flow cytometry analysis (reference value: 4.98 %); type: functional
[10] = test system: MDA-MB-231; assay: Inhibition of focal adhesion formation in human MDA-MB-231 cells assessed as reduction in focal adhesion at 20 uM incubated for 72 hrs by vinculin antibody based immunofluorescence microscopic analysis; type: functional, cell-based
[11] = test system: MDA-MB-231; assay: Inhibition of cell migration in human MDA-MB-231 cells incubated for 24 hrs by scratch wound healing assay; type: functional, cell-based; settings: dose 5-20 µM, DDE = dose-dependent effect
[12] = test system: MDA-MB-231; assay: Induction of apoptosis in human MDA-MB-231 cells assessed as dead cells at 20 uM incubated for 72 hrs by Annexin V-FITC and PI staining based flow cytometry analysis (reference value: 1.16 %); type: functional
[13] = test system: MDA-MB-231; assay: Inhibition of stress fibers formation in human MDA-MB-231 cells assessed as reduction in stress fibers at 20 uM incubated for 72 hrs by FITC-Phalloidin staining based immunofluorescence microscopic analysis; type: functional, cell-based
[14] = test system: MDA-MB-231; assay: Induction of apoptosis in human MDA-MB-231 cells assessed as viable cells at 10 uM incubated for 72 hrs by Annexin V-FITC and PI staining based flow cytometry analysis (reference value: 92.16 %); type: functional; settings: read-out: Activity
[15] = test system: MDA-MB-231; assay: Induction of apoptosis in human MDA-MB-231 cells assessed as dead cells at 5 uM incubated for 72 hrs by Annexin V-FITC and PI staining based flow cytometry analysis (reference value: 1.16 %); type: functional
[16] = test system: MDA-MB-231; assay: Induction of apoptosis in human MDA-MB-231 cells assessed as late apoptotic cells at 20 uM incubated for 72 hrs by Annexin V-FITC and PI staining based flow cytometry analysis (reference value: 4.98 %); type: functional
[17] = test system: MDA-MB-231; assay: Induction of apoptosis in human MDA-MB-231 cells assessed as dead cells at 10 uM incubated for 72 hrs by Annexin V-FITC and PI staining based flow cytometry analysis (reference value: 1.16 %); type: functional
[18] = Potency index, ratio of test compound IC50 to chloropyramine IC50 for cytotoxicity against human MCF-10A cells assessed as inhibition of cell proliferation incubated for 72 hrs by MTT assay; type: toxicity, cell-based; settings: read-out: Ratio IC50
[19] = test system: MDA-MB-231; assay: Induction of apoptosis in human MDA-MB-231 cells assessed as early apoptotic cells at 5 uM incubated for 72 hrs by Annexin V-FITC and PI staining based flow cytometry analysis (reference value: 1.70 %); type: functional
[20] = test system: MDA-MB-231; assay: Inhibition of cell invasion in human MDA-MB-231 cells assessed as reduction in invasive cells incubated for 24 hrs by crystal violet staining based transwell assay; type: functional; settings: dose 5-20 µM, DDE = dose-dependent effect
[21] = test system: MDA-MB-231; assay: Potency index, ratio of chloropyramine IC50 to test compound IC50 for antiproliferative activity against human MDA-MB-231 cells assessed as inhibition of cell proliferation incubated for 72 hrs by MTT assay; type: functional
[22] = test system: MDA-MB-231; assay: Induction of apoptosis in human MDA-MB-231 cells assessed as early apoptotic cells at 10 uM incubated for 72 hrs by Annexin V-FITC and PI staining based flow cytometry analysis (reference value: 1.70 %); type: functional
[23] = biological target: Focal adhesion kinase 1 (Homo sapiens) (UniProt Q05397); assay: Inhibition of FAK autophosphorylation at […] in human MDA-MB-231 cells incubated for 72 hrs by Western blot analysis; type: cell-based; settings: dose 5-20 µM, DDE = dose-dependent effect
[24] = test system: MDA-MB-231; assay: Induction of apoptosis in human MDA-MB-231 cells assessed as late apoptotic cells at 5 uM incubated for 72 hrs by Annexin V-FITC and PI staining based flow cytometry analysis (reference value: 4.98 %); type: functional

Focal adhesion kinase 1 (Homo sapiens), sequence (Q05397 2-1052 limits assumed): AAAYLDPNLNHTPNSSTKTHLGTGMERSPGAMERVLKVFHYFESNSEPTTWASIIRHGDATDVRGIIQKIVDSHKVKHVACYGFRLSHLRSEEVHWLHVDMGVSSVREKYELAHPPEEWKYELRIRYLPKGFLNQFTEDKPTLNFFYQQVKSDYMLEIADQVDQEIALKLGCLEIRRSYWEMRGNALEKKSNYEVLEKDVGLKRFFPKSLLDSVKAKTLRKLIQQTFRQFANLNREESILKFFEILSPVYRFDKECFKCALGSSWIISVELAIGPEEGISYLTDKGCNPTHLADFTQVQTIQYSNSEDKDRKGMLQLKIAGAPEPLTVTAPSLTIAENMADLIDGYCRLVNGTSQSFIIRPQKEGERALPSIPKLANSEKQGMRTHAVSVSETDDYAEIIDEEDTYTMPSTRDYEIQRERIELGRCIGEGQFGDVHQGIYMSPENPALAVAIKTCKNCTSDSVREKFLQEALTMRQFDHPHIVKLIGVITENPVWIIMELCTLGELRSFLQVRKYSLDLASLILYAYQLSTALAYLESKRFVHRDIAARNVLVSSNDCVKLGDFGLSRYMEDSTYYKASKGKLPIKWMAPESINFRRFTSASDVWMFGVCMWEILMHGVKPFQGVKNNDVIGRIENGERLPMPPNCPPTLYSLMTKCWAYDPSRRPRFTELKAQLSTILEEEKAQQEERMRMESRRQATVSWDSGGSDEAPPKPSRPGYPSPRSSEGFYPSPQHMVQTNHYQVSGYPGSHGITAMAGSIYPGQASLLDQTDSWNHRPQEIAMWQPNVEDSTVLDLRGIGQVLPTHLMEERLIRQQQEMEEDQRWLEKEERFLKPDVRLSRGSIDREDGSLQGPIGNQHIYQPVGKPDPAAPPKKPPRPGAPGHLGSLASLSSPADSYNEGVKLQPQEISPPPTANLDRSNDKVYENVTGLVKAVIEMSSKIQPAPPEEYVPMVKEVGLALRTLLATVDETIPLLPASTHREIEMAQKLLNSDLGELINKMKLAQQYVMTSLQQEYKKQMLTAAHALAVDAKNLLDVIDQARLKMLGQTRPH

Structure (SMILES)	IC50 [3] [µM]	IC50 [4] [µM]	IC50 [5] [µM]	IC50 at 72 h [1] [µM]	inhibition at 10 µM [2] [%]	further results
Cc1nc(C)c(/C=C/C(=O)N(CCN(C)C)c2ccccn2)nc1C	9.68	21.2	14	> 60	> 50	
COc1cc(/C=C/C(=O)N(CCN(C)C)c2ccccn2)ccc1O	14.2	15.9	13.5	> 60	> 50	
CN(C)CCN(C(=O)/C=C/c1c[nH]c2ccccc12)c1ccccn1	12.1	9.07	8.37	40.6	> 50	viability at 20 µM [6]: 52.6%; Activity [7]: 2.01%; viability at 5 µM [8]: 83%; Activity [9]: 30.24%; inhibition [10]: Active; inhibition [11]: Dde; Activity [12]: 5.83%; inhibition [13]: Active; viability at 10 µM [14]: 63.8%; Activity [15]: 3.88%; Activity [16]: 39.58%; Activity [17]: 3.98%; selectivity ratio at 72 h [18]: 5; Activity [19]: 3.05%; inhibition [20]: Dde; Ratio IC50 [21]: 6; Activity [22]: 2%; inhibition [23]: Dde; Activity [24]: 10.05%

The remaining compounds from weak to strong by IC50 [3], led by results:

IC50 [3] [µM]	IC50 [4] [µM]	IC50 [5] [µM]	Structure (SMILES)	IC50 at 72 h [1] [µM]	inhibition at 10 µM [2] [%]	further results
43.1	> 60	49.7	CN(C)CCN(Cc1ccc(Cl)cc1)c1ccccn1 [CHLOROPYRAMINE]	> 60		
21.4	15.5	9.31	COc1cc(/C=C/C(=O)N(CCN(C)C)c2ccccn2)cc(OC)c1OC	45.5	> 50	
